Results: ChEMBL document CHEMBL1142814, “Synthesis and preliminary biological evaluation of new anti-tubulin agents containing different benzoheterocycles” (Bioorg Med Chem Lett, 2005)
pIC50: −log10 of the molar value.

How the values were obtained:
[1] = target: Tubulin beta chain (Bos taurus); assay: Concentration required to inhibit tubulin polymerization at 10 uM
[2] = target: Tubulin beta chain (Bos taurus) (UniProt Q6B856); assay: Inhibition of 1 uM [3H]colchicine binding to tubulin at 5 uM
MOLT-4 = assay: Concentration required to inhibit human T-lymphoblast Molt4/C8 cell line proliferation; type: functional, cell-based
L1210 = assay: Concentration required to inhibit murine leukemia L1210 cell line proliferation; type: functional, cell-based; details: Mus musculus
FM3A = assay: Concentration required to inhibit murine mammary carcinoma FM3A cell line proliferation; type: functional, cell-based; details: Mus musculus
CCRF-CEM = assay: Concentration required to inhibit human T-lymphoblast CEM cell line proliferation; type: functional, cell-based
[3] = target: Tubulin beta chain (Bos taurus) (UniProt Q6B856); assay: Inhibition of [3H]colchicine binding to 1 uM beta-tubulin at 2 uM

Sequence of Tubulin beta chain (Bos taurus) (UniProt Q6B856) (Q6B856 whole entry): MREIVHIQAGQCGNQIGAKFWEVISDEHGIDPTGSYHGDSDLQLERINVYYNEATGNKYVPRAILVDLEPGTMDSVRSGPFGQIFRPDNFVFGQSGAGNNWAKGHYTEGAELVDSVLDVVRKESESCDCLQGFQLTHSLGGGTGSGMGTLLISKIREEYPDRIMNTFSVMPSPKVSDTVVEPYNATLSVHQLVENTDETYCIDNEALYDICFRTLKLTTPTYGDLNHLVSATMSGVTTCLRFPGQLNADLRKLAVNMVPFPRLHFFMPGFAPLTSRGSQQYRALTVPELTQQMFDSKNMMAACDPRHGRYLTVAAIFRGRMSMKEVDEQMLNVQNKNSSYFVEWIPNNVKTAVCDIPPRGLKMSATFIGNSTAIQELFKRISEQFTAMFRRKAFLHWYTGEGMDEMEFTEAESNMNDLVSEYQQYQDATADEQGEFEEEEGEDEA

Row | SMILES | pIC50 [1] | inhibition [2] [%] | pIC50 (MOLT-4) | pIC50 (L1210) | pIC50 (FM3A) | pIC50 (CCRF-CEM) | inhibition [3] [%]
1 | COc1cc(C(=O)c2sc3cc(C)ccc3c2N)cc(OC)c1OC | 5.89 | 88 | 7.47 | 7.24 | 7.15 | 7.62 | 77
2 | COc1cc(C(=O)c2[nH]c3ccccc3c2N)cc(OC)c1OC |  |  | < 5.00 | < 5.00 | < 5.00 | < 5.00 | 
3 | COc1cc(C(=O)c2sc3ccccc3c2N)cc(OC)c1OC | 5.38 | 39 | 6.54 | 6.46 | 5.74 | 6.51 | 
4 | COc1cc(C(=O)c2c(N)sc3c2CCCC3)cc(OC)c1OC | < 4.40 | 3 | 5.80 | 5.65 | 5.25 | 5.67 | 
5 | COc1ccc(C(=O)c2c(N)sc3ccccc23)cc1 |  |  | 5.04 | < 5.00 | < 5.00 | < 5.00 | 
6 | COc1cc(C(=O)c2c(N)sc3ccccc23)cc(OC)c1OC | 5.51 | 57 | 7.14 |  |  |  | 
7 | COc1ccc(C(=O)c2c(N)sc3ccccc23)cc1OC |  |  | 5.77 | 5.43 | 5.33 | 5.77 | 
8 | COc1cc(C(=O)c2oc3ccccc3c2N)cc(OC)c1OC |  |  | < 5.00 | < 5.00 | < 5.00 | < 5.00 | 
